According to publication PMC8697972, “New Auranofin Analogs with Antibacterial Properties against Burkholderia Clinical Isolates” (Antibiotics, 2021):
Values after ≈ are worked out from the molar mass of the structure shown. Where two headings read alike, the source gives them in different places. Marks after values point to notes of the source that are not given here.

Columns and labels:
[1] = tested on: B. cenocepacia K56-2; type: cell-based, Burkholderia cenocepacia; settings: 18 h
[2] = tested on: B. lata BCC6; type: cell-based, Burkholderia lata
[3] = tested on: B. contaminans MF16; type: cell-based, Burkholderia contaminans
[4] = tested on: B. contaminans FFH-2050MA; type: cell-based, Burkholderia contaminans
[5] = tested on: B. dolosa CEP021; type: cell-based, Burkholderia dolosa
[6] = tested on: B. multivorans ATCC17616; type: cell-based, Burkholderia multivorans
[7] = tested on: B. cenocepacia 140485; type: cell-based, Burkholderia cenocepacia
[8] = tested on: B. ubonensis LMG 20358; type: cell-based, Burkholderia ubonensis
[9] = tested on: B. contaminans FFH-4004; type: cell-based, Burkholderia contaminans
[10] = tested on: members of the Bcc; experiment: MIC, summary over Bcc panel; type: cell-based, Burkholderia cepacia complex
[11] = tested on: C. elegans DH26; settings: for Percent survival of C. elegans: 24 h; for Survival100/MIC Ratio: highest concentration with 100 percent survival divided by the compound's MIC
[12] = tested on: Galleria mellonella larvae; experiment: Galleria toxicity
[13] = tested on: Burkholderia cenocepacia K56-2; experiment: Time kill assays (exponential and stationary phase); settings: for killing of stationary (non-replicating) phase cells: 4× MIC (DOX 4× MIC)
[14] = tested on: B. cenocepacia K56-2; experiment: Persister frequency assay; settings: 24 h
[15] = tested on: B. mallei China 5 (NBL 4); type: cell-based, Burkholderia mallei
[16] = tested on: B. mallei Ivan (NCTC 10230); type: cell-based, Burkholderia mallei
[17] = tested on: B. mallei China 7 (NBL 7); type: cell-based, Burkholderia mallei
[18] = tested on: B. pseudomallei 1710b; type: cell-based, Burkholderia pseudomallei
[19] = tested on: B. pseudomallei MSHR465a; type: cell-based, Burkholderia pseudomallei
[20] = tested on: B. pseudomallei HBPUB10134a; type: cell-based, Burkholderia pseudomallei
[21] = tested on: Stenotrophomonas maltophilia DH57; type: cell-based
[22] = tested on: Stenotrophomonas maltophilia K279a; type: cell-based
[23] = tested on: Escherichia coli 120955; type: cell-based
[24] = tested on: Escherichia vulneris CEP511; type: cell-based
[25] = tested on: Klebsiella pneumoniae 120310; type: cell-based
[26] = tested on: Acinetobacter baumannii ATCC 17978; type: cell-based
[27] = tested on: Staphylococcus aureus ATCC 27700; type: cell-based
[28] = tested on: Staphylococcus aureus 107094; type: cell-based
[29] = tested on: Achromobacter xylosoxidans ACH03; type: cell-based
[30] = tested on: Burkholderia cenocepacia K56-2; experiment: MBC (minimum bactericidal concentration); type: cell-based; settings: MBC determined from exponential time kill curve
[31] = tested on: Stenotrophomonas maltophilia K279a; experiment: MBC (minimum bactericidal concentration); type: cell-based
[32] = tested on: B. cenocepacia K56-2 persister cells; experiment: Time kill of persister cells generated with ciprofloxacin; type: cell-based, Burkholderia cenocepacia; settings: for killing of ciprofloxacin-generated persister cells: in PBS, 3 h, MS-40S/MS-40 2× and 4× MIC, ciprofloxacin 5× MIC
[33] = tested on: B. cenocepacia K56-2; experiment: In vivo antibiotic activity in infected C. elegans; settings: C. elegans infected with B. cenocepacia K56-2, data not shown
[34] = tested on: B. cenocepacia K56-2; experiment: In vivo antibiotic activity in infected G. mellonella; settings: G. mellonella infected with B. cenocepacia K56-2, data not shown
[35] = tested on: B. cenocepacia K56-2; experiment: MIC in 50% human serum; type: cell-based, Burkholderia cenocepacia
[36] = tested on: Stenotrophomonas maltophilia DH57; experiment: MBC (minimum bactericidal concentration)
[37] = tested on: Escherichia coli 120955; experiment: MBC (minimum bactericidal concentration)
[38] = tested on: Escherichia vulneris CEP511; experiment: MBC (minimum bactericidal concentration)
[39] = tested on: Klebsiella pneumoniae 120310; experiment: MBC (minimum bactericidal concentration)
[40] = tested on: Acinetobacter baumannii ATCC 17978; experiment: MBC (minimum bactericidal concentration)
[41] = tested on: Staphylococcus aureus ATCC 27700; experiment: MBC (minimum bactericidal concentration)
[42] = tested on: Staphylococcus aureus 107094; experiment: MBC (minimum bactericidal concentration)
[43] = tested on: Achromobacter xylosoxidans ACH03; experiment: MBC (minimum bactericidal concentration)
[44] = Burkholderia contaminans, FFH2050MA
[45] = Burkholderia multivorans, ATCC17616
[46] = Burkholderia cenocepacia, 140485
[47] = Burkholderia ubonensis, LMG20358
[48] = Burkholderia contaminans, FFH4004

SMILES: C[C@H]1c2cccc(O)c2C(=O)C2=C(O)[C@]3(O)C(=O)C(C(N)=O)=C(O)[C@@H](N(C)C)[C@@H]3[C@@H](O)[C@@H]21 [DOX, doxycycline, reference compound]
- MIC ([1]; Burkholderia cenocepacia): 4 µg/mL (≈ 9 µM)
- MIC ([2]; Burkholderia lata, BCC6): 4 µg/mL (≈ 9 µM)
- MIC ([3]; Burkholderia contaminans, MF16): 16 µg/mL (≈ 36 µM)
- MIC [4, 44]: 2 µg/mL (≈ 4.5 µM)
- MIC ([5]; Burkholderia dolosa, CEP021): 16 µg/mL (≈ 36 µM)
- MIC [6, 45]: 2 µg/mL (≈ 4.5 µM)
- MIC [7, 46]: 1 µg/mL (≈ 2.25 µM)
- MIC [8, 47]: 4 µg/mL (≈ 9 µM)
- MIC [9, 48]: 8 µg/mL (≈ 18 µM)
- MIC ([10]; Burkholderia cepacia, read-out: MIC values against some isolates from the Bcc, lowest values, some isolates): 1 µg/mL (≈ 2.25 µM)
- MIC values against some isolates from the Bcc ([10]; lowest values, some isolates): 2 µg/mL (≈ 4.5 µM)
- Percent survival of C. elegans ([11]; 4 μg/mL): 100%
- Percent survival of C. elegans ([11]; 8 μg/mL): 97.4%
- Percent survival of C. elegans ([11]; 16 μg/mL): 100%
- Percent survival of C. elegans ([11]; 32 μg/mL): 98.2%
- Percent survival of C. elegans ([11]; 64 μg/mL): 100%
- Percent survival of C. elegans ([11]; 128 μg/mL): 91.5%
- Percent survival of C. elegans ([11]; 256 μg/mL): 79.5%
- Survival100/MIC Ratio [11]: 16
- Galleria Survival ([12]; 1.0 mg/kg, 24 h): 96.7%
- Galleria Survival ([12]; 1.0 mg/kg, 48 h): 96.7%
- Galleria Survival ([12]; 1.0 mg/kg, 72 h): 96.7%
- Galleria Survival ([12]; 2.0 mg/kg, 24 h): 93.3%
- Galleria Survival ([12]; 2.0 mg/kg, 48 h): 93.3%
- Galleria Survival ([12]; 2.0 mg/kg, 72 h): 93.3%
- Galleria Survival ([12]; 5.0 mg/kg, 24 h): 93.3%
- Galleria Survival ([12]; 5.0 mg/kg, 48 h): 90.0%
- Galleria Survival ([12]; 5.0 mg/kg, 72 h): 90.0%
- Galleria Survival ([12]; 10.0 mg/kg, 24 h): 93.3%
- Galleria Survival ([12]; 10.0 mg/kg, 48 h): 93.3%
- Galleria Survival ([12]; 10.0 mg/kg, 72 h): 93.3%
- killing of stationary (non-replicating) phase cells ([13]; time kill, 1×, 2×, 6 h): unable to kill cells

SMILES: C[C@@H](O)[C@H]1C(=O)N2C(C(=O)O)=C(S[C@@H]3CN[C@H](C(=O)N(C)C)C3)[C@H](C)[C@H]12 [MEM, meropenem, reference compound]
- MIC ([1]; Burkholderia cenocepacia): 16 µg/mL (≈ 41.7 µM)
- MIC ([2]; Burkholderia lata, BCC6): 4 µg/mL (≈ 10.4 µM)
- MIC ([3]; Burkholderia contaminans, MF16): 8 µg/mL (≈ 20.9 µM)
- MIC [4, 44]: 4 µg/mL (≈ 10.4 µM)
- MIC ([5]; Burkholderia dolosa, CEP021): 8 µg/mL (≈ 20.9 µM)
- MIC [6, 45]: 4 µg/mL (≈ 10.4 µM)
- MIC [7, 46]: 16 µg/mL (≈ 41.7 µM)
- MIC [8, 47]: 16 µg/mL (≈ 41.7 µM)
- MIC [9, 48]: 8 µg/mL (≈ 20.9 µM)
- Percent survival of C. elegans ([11]; 4 μg/mL): 100%
- Percent survival of C. elegans ([11]; 8 μg/mL): 100%
- Percent survival of C. elegans ([11]; 16 μg/mL): 100%
- Percent survival of C. elegans ([11]; 32 μg/mL): 100%
- Percent survival of C. elegans ([11]; 64 μg/mL): 100%
- Percent survival of C. elegans ([11]; 128 μg/mL): 97.4%
- Percent survival of C. elegans ([11]; 256 μg/mL): 93.2%
- Survival100/MIC Ratio [11]: 4
- Survival100/MIC Ratio ([11]; listed as meropenem): four
- persister frequency (percent survival) ([14]; 5× MIC): low amount of persisters
- persister frequency (percent survival) ([14]; 10× MIC): low amount of persisters
- persister frequency (percent survival) ([14]; 5× and 10× MIC tested, concentration not told apart): 5–7%

SMILES: CC(O)C[S][Au-][P+](C)(C)C (centres unmarked) [MS-40S]
- MIC ([1]; B. cenocepacia K56-2, CAMHB, 37 °C): 8 µg/mL
- MIC ([2]; B. lata BCC6): 8 µg/mL
- MIC ([3]; B. contaminans MF16): 8 µg/mL
- MIC ([4]; B. contaminans FFH-2050MA): 16 µg/mL
- MIC ([5]; B. dolosa CEP021): 32 µg/mL
- MIC ([6]; B. multivorans ATCC17616): 16 µg/mL
- MIC ([7]; B. cenocepacia 140485): 16 µg/mL
- MIC ([8]; B. ubonensis LMG 20358): 16 µg/mL
- MIC ([9]; B. contaminans FFH-4004): 16 µg/mL
- MIC [15]: 0.12 µg/mL
- MIC [16]: 0.12 µg/mL
- MIC [17]: 0.25 µg/mL
- MIC [18]: 4 µg/mL
- MIC [19]: 4 µg/mL
- MIC [20]: 2 µg/mL
- MIC [21]: 2 µg/mL
- MIC [22]: 2 µg/mL
- MIC [23]: 4 µg/mL
- MIC [24]: 4 µg/mL
- MIC [25]: 4 µg/mL
- MIC [26]: 2 µg/mL
- MIC [27]: 0.5 µg/mL
- MIC [28]: 0.25 µg/mL
- MIC [29]: 16 µg/mL
- MBC [30]: >32 * μg/mL
- MBC [31]: 8 µg/mL
- further reduction of ciprofloxacin-generated persister population ([32]; enriched persister population): 1–2 log10 CFU/mL
- killing of ciprofloxacin-generated persister cells [32]: killed to a concentration below/close to the limit of detection
- in vivo antibiotic activity [33]: did not observe in vivo antibiotic activity
- in vivo antibiotic activity [34]: did not observe in vivo antibiotic activity
- MIC in the presence of 50% human serum [35]: 128 µg/mL
- Percent survival of C. elegans ([11]; 4 μg/mL): 100%
- Percent survival of C. elegans ([11]; 8 μg/mL): 100%
- Percent survival of C. elegans ([11]; 16 μg/mL): 100%
- Percent survival of C. elegans ([11]; 32 μg/mL): 100%
- Percent survival of C. elegans ([11]; 64 μg/mL): 100%
- Percent survival of C. elegans ([11]; 128 μg/mL): 97.6%
- Percent survival of C. elegans ([11]; 256 μg/mL): 85.7%
- Survival100/MIC Ratio [11]: 8
- Galleria Survival ([12]; 1.0 mg/kg, 24 h): 96.7%
- Galleria Survival ([12]; 1.0 mg/kg, 48 h): 86.7%
- Galleria Survival ([12]; 1.0 mg/kg, 72 h): 86.7%
- Galleria Survival ([12]; 2.0 mg/kg, 24 h): 83.3%
- Galleria Survival ([12]; 2.0 mg/kg, 48 h): 83.3%
- Galleria Survival ([12]; 2.0 mg/kg, 72 h): 83.3%
- Galleria Survival ([12]; 5.0 mg/kg, 24 h): 93.3%
- Galleria Survival ([12]; 5.0 mg/kg, 48 h): 86.7%
- Galleria Survival ([12]; 5.0 mg/kg, 72 h): 86.7%
- percent survival of Galleria larvae ([12]; 10 mg/kg): ≥ 80%
- Galleria Survival ([12]; 10.0 mg/kg, 24 h): 90.0%
- Galleria Survival ([12]; 10.0 mg/kg, 48 h): 76.7%
- Galleria Survival ([12]; 10.0 mg/kg, 72 h): 76.7%
- persister frequency (percent survival) ([14]; 5× MIC): very low persister frequency
- persister frequency (percent survival) ([14]; 10× MIC): no persisters
- MBC [36]: 8 µg/mL
- MBC [37]: 64 µg/mL
- MBC [38]: 4 µg/mL
- MBC [39]: 8 µg/mL
- MBC [40]: 8 µg/mL
- MBC [41]: 2 µg/mL
- MBC [42]: 1 µg/mL
- MBC [43]: 32 µg/mL
- reduction of the culture in time kill ([13]; 4× MIC, exponential phase): approximately three
- killing of stationary (non-replicating) phase cells ([13]; time kill, 1×, 2×, 6 h): bactericidal
- killing of exponential (replicating) phase cells ([13]; time kill, 1×, 2×, 4× MIC, 6 h): bactericidal

SMILES: O=C(O)c1cn(C2CC2)c2cc(N3CCNCC3)c(F)cc2c1=O [ciprofloxacin, reference compound]
- killing of ciprofloxacin-generated persister cells [32]: not killed
